Laboratory results: ChEMBL document CHEMBL3352620, “Development of potent antagonists for formyl peptide receptor 1 based on Boc-Phe-D-Leu-Phe-D-Leu-Phe-OH” (Bioorg Med Chem, 2014)
The source made the active and inactive calls. The rule behind the calls is not given here. Square brackets hold non-standard residues; d marks the D form. Peptide text beside a SMILES is read from it. * marks the point of attachment. Boc = CC(C)(C)OC(=O)*

Key:
[1] = target: T1, fMet-Leu-Phe receptor (Homo sapiens, UniProt P21462); assay: Antagonist activity at formyl peptide receptor in human HL60 cells assessed as inhibition of fMLP-induced calcium mobilization incubated for 5 mins prior to fMLP challenge by Fura-2 method
T1 sequence (P21462 whole entry): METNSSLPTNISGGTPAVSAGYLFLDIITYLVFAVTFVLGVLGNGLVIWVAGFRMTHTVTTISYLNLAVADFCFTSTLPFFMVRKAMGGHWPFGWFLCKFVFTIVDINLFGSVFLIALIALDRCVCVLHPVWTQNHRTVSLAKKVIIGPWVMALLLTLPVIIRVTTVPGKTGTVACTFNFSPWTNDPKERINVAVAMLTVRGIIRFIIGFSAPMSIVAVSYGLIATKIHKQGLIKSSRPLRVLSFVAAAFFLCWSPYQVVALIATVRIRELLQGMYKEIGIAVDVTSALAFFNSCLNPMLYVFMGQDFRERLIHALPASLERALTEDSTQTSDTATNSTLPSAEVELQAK

[2] = target: T1, fMet-Leu-Phe receptor; assay: Antagonist activity at formyl peptide receptor in human HL60 cells assessed as inhibition of intracellular calcium mobilization incubated for 5 mins prior to fMLP challenge by Fura-2 method; assay type: functional, cell-based, HL-60
[3] = target: T2, fMet-Leu-Phe receptor (Homo sapiens) (UniProt P21462); assay: Antagonist activity at formyl peptide receptor in human HL60 cells assessed as inhibition of MMK1-induced calcium mobilization at 1 to 10 uM incubated for 5 mins prior to MMk1 challenge by Fura-2 method; assay type: functional, cell-based; conditions: HL-60
T2 sequence (whole entry): T1 sequence (P21462 whole entry)

[4] = target: T2, fMet-Leu-Phe receptor (Homo sapiens); assay: Agonist activity at formyl peptide receptor in human HL60 cells at 10 uM by Fura-2 method; assay type: cell-based; conditions: HL-60
[5] = target: T2, fMet-Leu-Phe receptor (Homo sapiens); assay: Antagonist activity at formyl peptide receptor in human HL60 cells assessed as fMLP EC50 at 1 uM incubated for 5 mins prior to fMLP challenge by Fura-2 method; assay type: cell-based; conditions: HL-60

Kd [2]	SMILES	other results
2.1 nM	CC(C)C[C@@H](NC(=O)[C@H](CC1=CCCCC1)NC(=O)[C@@H](CC(C)C)NC(=O)[C@H](Cc1ccc(C(=O)c2ccccc2)cc1)NC(=O)OC(C)(C)C)C(=O)N[C@@H](Cc1ccccc1)C(=O)O	IC50 [1]: 140 nM; inhibition [3]: inactive
730 nM	CC(C)C[C@@H](NC(=O)[C@H](Cc1ccccc1)NC(=O)[C@@H](CC(C)C)NC(=O)[C@H](CCCCN)NC(=O)OC(C)(C)C)C(=O)N[C@@H](Cc1ccccc1)C(=O)O	–
190 nM	CC(C)C[C@@H](NC(=O)[C@H](Cc1ccccc1)NC(=O)[C@@H](CC(C)C)NC(=O)[C@H](Cc1c[nH]c2ccccc12)NC(=O)OC(C)(C)C)C(=O)N[C@@H](Cc1ccccc1)C(=O)O	–
100 nM	CC(C)C[C@@H](NC(=O)[C@H](Cc1ccccc1)NC(=O)[C@@H](CC(C)C)NC(=O)[C@H](COC(C)(C)C)NC(=O)OC(C)(C)C)C(=O)N[C@@H](Cc1ccccc1)C(=O)O	–
130 nM	CC(C)C[C@@H](NC(=O)[C@H](Cc1ccccc1)NC(=O)OC(C)(C)C)C(=O)N[C@@H](Cc1ccccc1)C(=O)N[C@H](CC(C)C)C(=O)N[C@H](C(=O)O)[C@@H](C)OC(C)(C)C	–
6.9 nM	CC(C)C[C@@H](NC(=O)[C@H](CC1=CCCCC1)NC(=O)[C@@H](CC(C)C)NC(=O)[C@H](Cc1ccc(C(=O)c2ccccc2)cc1)NC(=O)OC(C)(C)C)C(=O)N[C@@H](CC1CCCCC1)C(=O)O	–
62 nM	CC(C)C[C@@H](NC(=O)[C@H](Cc1ccccc1)NC(=O)[C@@H](CC(C)C)NC(=O)[C@H](Cc1ccc(OC(C)(C)C)cc1)NC(=O)OC(C)(C)C)C(=O)N[C@@H](Cc1ccccc1)C(=O)O	–
66 nM	CC(C)C[C@@H](NC(=O)[C@H](Cc1ccccc1)NC(=O)[C@@H](CC(C)C)NC(=O)[C@H](CC1CCCCC1)NC(=O)OC(C)(C)C)C(=O)N[C@@H](Cc1ccccc1)C(=O)O	–
280 nM	CC(C)C[C@@H](NC(=O)[C@H](C)NC(=O)[C@@H](CC(C)C)NC(=O)[C@H](Cc1ccccc1)NC(=O)OC(C)(C)C)C(=O)N[C@@H](Cc1ccccc1)C(=O)O	Activity [4]: inactive
140 nM	CC(C)C[C@@H](NC(=O)[C@H](Cc1ccccc1)NC(=O)[C@@H](CC(C)C)NC(=O)[C@@H](NC(=O)OC(C)(C)C)[C@@H](C)OC(C)(C)C)C(=O)N[C@@H](Cc1ccccc1)C(=O)O	–
510 nM	CC(C)C[C@@H](NC(=O)[C@H](CC(=O)OC(C)(C)C)NC(=O)[C@@H](CC(C)C)NC(=O)[C@H](Cc1ccccc1)NC(=O)OC(C)(C)C)C(=O)N[C@@H](Cc1ccccc1)C(=O)O	–
150 nM	CC(C)C[C@@H](NC(=O)[C@H](Cc1ccc(C(=O)c2ccccc2)cc1)NC(=O)[C@@H](CC(C)C)NC(=O)[C@H](Cc1ccccc1)NC(=O)OC(C)(C)C)C(=O)N[C@@H](Cc1ccccc1)C(=O)O	–
180 nM	CC(C)C[C@@H](NC(=O)[C@H](Cc1ccccc1)NC(=O)[C@@H](CC(C)C)NC(=O)[C@H](Cc1ccccc1)NC(=O)OC(C)(C)C)C(=O)N[C@@H](COC(C)(C)C)C(=O)O	–
150 nM	CC(C)C[C@@H](NC(=O)[C@H](Cc1ccccc1)NC(=O)[C@@H](CC(C)C)NC(=O)[C@H](Cc1ccccc1)NC(=O)OC(C)(C)C)C(=O)N[C@@H](Cc1c[nH]c2ccccc12)C(=O)O	–
140 nM	CC(C)C[C@@H](NC(=O)[C@H](Cc1ccccc1)NC(=O)[C@@H](CC(C)C)NC(=O)[C@H](CCCCNC(=O)c1ccccc1)NC(=O)OC(C)(C)C)C(=O)N[C@@H](Cc1ccccc1)C(=O)O	–
420 nM	CC(C)C[C@@H](NC(=O)[C@H](Cc1ccccc1)NC(=O)OC(C)(C)C)C(=O)N[C@@H](Cc1ccccc1)C(=O)N[C@@H](C)C(=O)N[C@@H](Cc1ccccc1)C(=O)O	Activity [4]: inactive
90 nM	CC(C)C[C@@H](NC(=O)[C@H](Cc1ccccc1)NC(=O)[C@@H](CC(C)C)NC(=O)[C@H](Cc1cn(C=O)c2ccccc12)NC(=O)OC(C)(C)C)C(=O)N[C@@H](Cc1ccccc1)C(=O)O	–
25 nM	CC(C)C[C@@H](NC(=O)[C@H](CC1CCCCC1)NC(=O)[C@@H](CC(C)C)NC(=O)[C@H](Cc1ccccc1)NC(=O)OC(C)(C)C)C(=O)N[C@@H](Cc1ccccc1)C(=O)O	–
130 nM	CC(C)C[C@H](NC(=O)[C@@H](CC(C)C)NC(=O)[C@H](Cc1ccccc1)NC(=O)[C@@H](CC(C)C)NC(=O)[C@H](Cc1ccccc1)NC(=O)OC(C)(C)C)C(=O)O	–

Kd [2]	SMILES	other results
130 nM	CSCC[C@H](NC(=O)[C@@H](CC(C)C)NC(=O)[C@H](Cc1ccccc1)NC(=O)OC(C)(C)C)C(=O)N[C@H](CC(C)C)C(=O)N[C@@H](Cc1ccccc1)C(=O)O	–
350 nM	CC(C)C[C@@H](NC(=O)[C@H](Cc1ccccc1)NC(=O)[C@@H](CC(C)C)NC(=O)[C@H](Cc1ccccc1)NC(=O)OC(C)(C)C)C(=O)N[C@@H](C)C(=O)O	Activity [4]: inactive
260 nM	CC(C)C[C@@H](NC(=O)[C@H](Cc1ccccc1)NC(=O)[C@H](C)NC(=O)[C@H](Cc1ccccc1)NC(=O)OC(C)(C)C)C(=O)N[C@@H](Cc1ccccc1)C(=O)O	Activity [4]: inactive
260 nM	CC(C)C[C@@H](NC(=O)[C@H](Cc1ccccc1)NC(=O)OC(C)(C)C)C(=O)N[C@@H](Cc1ccccc1)C(=O)N[C@H](CC(C)C)C(=O)N[C@H](C(=O)O)C(C)C	–
150 nM	CC(C)C[C@@H](NC(=O)[C@H](Cc1ccccc1)NC(=O)[C@@H](CC(C)C)NC(=O)[C@H](Cc1ccccc1)NC(=O)OC(C)(C)C)C(=O)N[C@@H](Cc1ccc(C(=O)c2ccccc2)cc1)C(=O)O	–
200 nM	CC(C)C[C@H](NC(=O)OC(C)(C)C)C(=O)N[C@H](CC(C)C)C(=O)N[C@@H](Cc1ccccc1)C(=O)N[C@H](CC(C)C)C(=O)N[C@@H](Cc1ccccc1)C(=O)O	–
120 nM	CC(C)C[C@@H](NC(=O)[C@H](Cc1ccccc1)NC(=O)[C@@H](CC(C)C)NC(=O)[C@H](Cc1ccccc1)NC(=O)OC(C)(C)C)C(=O)N[C@@H](Cc1cn(C(=O)OC(C)(C)C)c2ccccc12)C(=O)O	–
69 nM	CC(C)C[C@@H](NC(=O)[C@H](Cc1ccccc1)NC(=O)[C@@H](CC(C)C)NC(=O)[C@H](Cc1cn(C(=O)OC(C)(C)C)c2ccccc12)NC(=O)OC(C)(C)C)C(=O)N[C@@H](Cc1ccccc1)C(=O)O	–
> 1000 nM	CC(C)C[C@@H](NC(=O)[C@H](Cc1ccccc1)NC(=O)OC(C)(C)C)C(=O)N[C@H](C(=O)N[C@H](CC(C)C)C(=O)N[C@@H](Cc1ccccc1)C(=O)O)C(C)C	–
150 nM	CC(C)C[C@@H](NC(=O)[C@H](Cc1ccccc1)NC(=O)[C@@H](CC(C)C)NC(=O)[C@H](CCCCNC(=O)C1CCCCC1)NC(=O)OC(C)(C)C)C(=O)N[C@@H](Cc1ccccc1)C(=O)O	–
75 nM	CC(C)C[C@@H](NC(=O)[C@H](Cc1ccccc1)NC(=O)[C@@H](CC(C)C)NC(=O)[C@H](Cc1ccc(Cl)cc1)NC(=O)OC(C)(C)C)C(=O)N[C@@H](Cc1ccccc1)C(=O)O	–
200 nM	CC(C)C[C@H](NC(=O)[C@@H](CC(C)C)NC(=O)[C@H](Cc1ccccc1)NC(=O)OC(C)(C)C)C(=O)N[C@H](CC(C)C)C(=O)N[C@@H](Cc1ccccc1)C(=O)O	–
–	CC(C)C[C@@H](NC(=O)[C@H](Cc1ccccc1)NC(=O)[C@@H](CC(C)C)NC(=O)[C@H](Cc1ccccc1)NC(=O)OC(C)(C)C)C(=O)N[C@@H](Cc1ccccc1)C(=O)O (Boc-F[dL]F[dL]F-OH)	inhibition [5]: inactive; Activity [4]: inactive
16 nM	CC(C)C[C@@H](NC(=O)[C@H](Cc1ccccc1)NC(=O)[C@@H](CC(C)C)NC(=O)[C@H](Cc1ccc(C(=O)c2ccccc2)cc1)NC(=O)OC(C)(C)C)C(=O)N[C@@H](Cc1ccccc1)C(=O)O	IC50 [1]: 420 nM; inhibition [3]: inactive
830 nM	CC(C)C[C@@H](NC(=O)[C@H](Cc1ccccc1)NC(=O)OC(C)(C)C)C(=O)N[C@H](C(=O)N[C@H](CC(C)C)C(=O)N[C@@H](Cc1ccccc1)C(=O)O)[C@@H](C)OC(C)(C)C	–
77 nM	CC(C)C[C@@H](NC(=O)[C@H](Cc1ccccc1)NC(=O)[C@@H](CC(C)C)NC(=O)[C@H](Cc1ccccc1)NC(=O)OC(C)(C)C)C(=O)N[C@@H](CC1CCCCC1)C(=O)O	–
68 nM	CC(C)C[C@@H](NC(=O)[C@H](Cc1ccccc1)NC(=O)[C@@H](CC(C)C)NC(=O)[C@H](Cc1ccccc1)NC(=O)OC(C)(C)C)C(=O)N[C@@H](Cc1ccc(OC(C)(C)C)cc1)C(=O)O	–
> 1000 nM	CC(C)C[C@@H](NC(=O)[C@H](CCCCNC(=O)OC(C)(C)C)NC(=O)[C@@H](CC(C)C)NC(=O)[C@H](Cc1ccccc1)NC(=O)OC(C)(C)C)C(=O)N[C@@H](Cc1ccccc1)C(=O)O	–
170 nM	CC(C)C[C@@H](NC(=O)[C@H](C)NC(=O)OC(C)(C)C)C(=O)N[C@@H](Cc1ccccc1)C(=O)N[C@H](CC(C)C)C(=O)N[C@@H](Cc1ccccc1)C(=O)O	Activity [4]: inactive
